Measured values taken from ChEMBL document CHEMBL1201862, “PubChem BioAssay data set” (2004).
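Protocol summary: plate cells (96-well), add compound at 5 concentrations, incubate 48 h, interpolate endpoints linearly. Here, GI50 denotes the concentration required for 50% inhibition of growth.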 The source made the active and inactive calls. Cut-off read from the data, not from the text of the source: active = GI50 up to about 1.1 µM and inactive = higher.

Legend:
Test in all cases: NCI-60 cell line screen, 48 h
M14 = tested on: M14
MCF7 = tested on: MCF7
HOP-62 = tested on: HOP-62
COLO 205 = tested on: COLO 205
SK-MEL-5 = tested on: SK-MEL-5
UO-31 = tested on: UO-31
HL-60 = tested on: HL-60
LOX IMVI = tested on: LOX IMVI
OVCAR-8 = tested on: OVCAR-8
SK-MEL-28 = tested on: SK-MEL-28
RPMI-8226 = tested on: RPMI-8226
SW-620 = tested on: SW-620
786-0 = tested on: 786-0
IGROV-1 = tested on: IGROV-1
BT-549 = tested on: BT-549
NCI-H460 = tested on: NCI-H460
ACHN = tested on: ACHN
T47D = tested on: T47D
KM12 = tested on: KM12

Measured: GI50

O=C(/C=C/c1ccccc1)c1cc(C(=O)/C=C/c2ccccc2)c(O)cc1O
inactive: M14 > 100 µM | MCF7 51.4 µM | HOP-62 > 100 µM | COLO 205 > 100 µM | SK-MEL-5 69.3 µM | UO-31 41.3 µM | HL-60 > 100 µM | LOX IMVI > 100 µM | OVCAR-8 > 100 µM | SK-MEL-28 40.5 µM | RPMI-8226 65.6 µM | SW-620 > 100 µM | 786-0 > 100 µM | IGROV-1 > 100 µM | BT-549 > 100 µM | NCI-H460 > 100 µM | ACHN 73.1 µM

CC1CC(C)C2=NOS3=C2C1=NO3 (stereo unspecified)
inactive: M14 > 100 µM | MCF7 82.8 µM | T47D > 100 µM | HOP-62 > 100 µM | COLO 205 72.6 µM | SK-MEL-5 30.8 µM | KM12 > 100 µM | UO-31 > 100 µM | HL-60 > 100 µM | LOX IMVI > 100 µM | OVCAR-8 > 100 µM | SK-MEL-28 > 100 µM | RPMI-8226 > 100 µM | SW-620 > 100 µM | 786-0 > 100 µM | IGROV-1 58.7 µM | NCI-H460 > 100 µM | ACHN > 100 µM

Cc1cc2c(c(C(N)=O)c1C)-c1cccc(Cl)c1C2=O
inactive: M14 > 100 µM | HOP-62 > 100 µM | COLO 205 > 100 µM | SK-MEL-5 > 100 µM | KM12 > 100 µM | UO-31 41.6 µM | HL-60 > 100 µM | LOX IMVI > 100 µM | OVCAR-8 > 100 µM | SK-MEL-28 > 100 µM | RPMI-8226 > 100 µM | SW-620 > 100 µM | 786-0 > 100 µM | IGROV-1 > 100 µM | NCI-H460 > 100 µM | ACHN > 100 µM

CC(C)SC(C)(NC(=O)C1C(C)(C)CCC1(C)C)C(=O)O (stereo unspecified)
inactive: M14 > 100 µM | MCF7 > 100 µM | T47D > 100 µM | HOP-62 > 100 µM | COLO 205 > 100 µM | SK-MEL-5 > 100 µM | UO-31 > 100 µM | HL-60 > 100 µM | LOX IMVI > 100 µM | SK-MEL-28 > 100 µM | RPMI-8226 > 100 µM | SW-620 > 100 µM | 786-0 > 100 µM | NCI-H460 > 100 µM | ACHN > 100 µM

Cc1cn(C2OC(CO[Si](C)(C)C(C)(C)C)C(N(C)O[Si](C)(C)C(C)(C)C)C2[Se]c2ccccc2)c(=O)[nH]c1=O (stereo unspecified)
inactive: M14 8.3 µM | MCF7 4.71 µM | HOP-62 4.76 µM | COLO 205 5.38 µM | SK-MEL-5 4.16 µM | KM12 3.66 µM | UO-31 3.23 µM | HL-60 > 100 µM | LOX IMVI 2.94 µM | OVCAR-8 3.74 µM | SK-MEL-28 5.56 µM | RPMI-8226 3.18 µM | SW-620 3.48 µM | 786-0 2.89 µM | IGROV-1 8.17 µM | ACHN 3.92 µM

CC12ON=C(c3ccccc3)N1C=CN1C(c3ccccc3)=NOC12 (stereo unspecified)
inactive: M14 > 100 µM | MCF7 > 100 µM | HOP-62 > 100 µM | COLO 205 37.2 µM | SK-MEL-5 13 µM | KM12 > 100 µM | UO-31 > 100 µM | LOX IMVI > 100 µM | OVCAR-8 > 100 µM | 786-0 > 100 µM | IGROV-1 > 100 µM | BT-549 > 100 µM | NCI-H460 > 100 µM | ACHN > 100 µM

CCc1c2c(cc3c1CC1(C3)Cc3cc4c(c(C(=O)OC)c3C1)CCCC4)CCCC2 (stereo unspecified)
inactive: M14 > 100 µM | MCF7 > 100 µM | T47D > 100 µM | HOP-62 > 100 µM | COLO 205 > 100 µM | SK-MEL-5 > 100 µM | KM12 > 100 µM | UO-31 > 100 µM | HL-60 80.9 µM | LOX IMVI > 100 µM | OVCAR-8 > 100 µM | RPMI-8226 > 100 µM | 786-0 12.1 µM | IGROV-1 > 100 µM | ACHN > 100 µM

CC(=O)O[C@@H]1C=C(C)[C@H](CBr)O[C@@]2(C)CC[C@H](Br)C(C)(C)[C@H]12
inactive: M14 > 100 µM | MCF7 > 100 µM | HOP-62 > 100 µM | COLO 205 > 100 µM | SK-MEL-5 > 100 µM | KM12 > 100 µM | UO-31 > 100 µM | HL-60 91.2 µM | LOX IMVI > 100 µM | OVCAR-8 > 100 µM | SK-MEL-28 > 100 µM | RPMI-8226 > 100 µM | SW-620 > 100 µM | 786-0 > 100 µM | IGROV-1 > 100 µM | BT-549 > 100 µM | NCI-H460 > 100 µM | ACHN > 100 µM

O=C(Nc1ccccc1)C(=O)C(C(=O)c1ccccc1)C(c1ccccc1)c1ccccc1 (stereo unspecified)
inactive: M14 > 10 µM | MCF7 > 10 µM | T47D > 10 µM | HOP-62 > 10 µM | COLO 205 > 10 µM | SK-MEL-5 > 10 µM | HL-60 > 10 µM | LOX IMVI > 10 µM | OVCAR-8 > 10 µM | SK-MEL-28 > 10 µM | RPMI-8226 > 10 µM | SW-620 > 10 µM | 786-0 > 10 µM | IGROV-1 > 10 µM

O=c1cc(N2CCCC2)[nH]c(=O)n1Cc1ccccc1
inactive: M14 > 100 µM | MCF7 > 100 µM | HOP-62 > 100 µM | COLO 205 > 100 µM | SK-MEL-5 > 100 µM | KM12 > 100 µM | HL-60 > 100 µM | LOX IMVI > 100 µM | OVCAR-8 > 100 µM | SK-MEL-28 > 100 µM | RPMI-8226 > 100 µM | SW-620 > 100 µM | 786-0 > 100 µM | IGROV-1 > 100 µM | BT-549 > 100 µM | NCI-H460 > 100 µM | ACHN > 100 µM

CCCCc1ccc2[n+](c1)C(C(=O)OCC)=PC2 (stereo unspecified)
inactive: M14 > 100 µM | MCF7 30.7 µM | HOP-62 > 100 µM | COLO 205 > 100 µM | SK-MEL-5 > 100 µM | KM12 > 100 µM | HL-60 40.7 µM | OVCAR-8 > 100 µM | SK-MEL-28 > 100 µM | RPMI-8226 28.2 µM | SW-620 > 100 µM | 786-0 72.1 µM | IGROV-1 > 100 µM | BT-549 > 100 µM | NCI-H460 > 100 µM | ACHN > 100 µM

CCCCC1Cc2ccccc2-c2nc3ccccc3n21 (stereo unspecified)
active: HL-60 < 0.01 µM
inactive: M14 18.1 µM | MCF7 17.3 µM | T47D 7.06 µM | HOP-62 19.1 µM | SK-MEL-5 14.6 µM | KM12 15.4 µM | UO-31 19.1 µM | LOX IMVI 16 µM | OVCAR-8 18 µM | SK-MEL-28 16.7 µM | RPMI-8226 12.1 µM | SW-620 16.4 µM | 786-0 25.2 µM | IGROV-1 15.8 µM | NCI-H460 14.3 µM | ACHN 17.1 µM

CCOP(=O)(C=C=C1CCC2[C@@H]3CCc4cc(OC)ccc4C3CC[C@]12C)OCC (stereo partly specified)
active: UO-31 < 0.01 µM | HL-60 0.0222 µM
inactive: M14 11.6 µM | MCF7 6.14 µM | T47D 6.22 µM | HOP-62 15.3 µM | COLO 205 10.5 µM | SK-MEL-5 2.98 µM | KM12 12.4 µM | LOX IMVI 9.06 µM | OVCAR-8 11 µM | SK-MEL-28 10.6 µM | SW-620 12 µM | 786-0 12.3 µM | IGROV-1 11.4 µM | NCI-H460 7.82 µM | ACHN 10.3 µM

N#Cc1c(N)oc(-c2ccc([N+](=O)[O-])cc2)c1C#N
inactive: M14 75.3 µM | MCF7 35 µM | T47D 27.2 µM | HOP-62 24.5 µM | COLO 205 43.9 µM | SK-MEL-5 17 µM | KM12 72.6 µM | UO-31 19.1 µM | HL-60 > 100 µM | LOX IMVI 44.2 µM | OVCAR-8 20.5 µM | SK-MEL-28 44.2 µM | RPMI-8226 33.3 µM | SW-620 58.3 µM | 786-0 30.1 µM | IGROV-1 18.5 µM | ACHN 27.2 µM

NS(=O)(=O)c1cc(S(N)(=O)=O)c(NC(=O)Nc2ccc(Cl)c(Cl)c2)c(Cl)c1Cl
inactive: M14 > 100 µM | MCF7 > 100 µM | COLO 205 40.6 µM | SK-MEL-5 > 100 µM | KM12 > 100 µM | UO-31 > 100 µM | LOX IMVI > 100 µM | OVCAR-8 > 100 µM | SK-MEL-28 > 100 µM | RPMI-8226 > 100 µM | SW-620 > 100 µM | 786-0 > 100 µM | IGROV-1 > 100 µM | BT-549 > 100 µM | NCI-H460 > 100 µM | ACHN > 100 µM

COc1ccc2c(c1)c(CC(=O)O)c(C)n2C(=O)c1ccc(Cl)cc1
inactive: M14 > 100 µM | MCF7 87.7 µM | T47D 52.6 µM | HOP-62 54.5 µM | COLO 205 > 100 µM | SK-MEL-5 > 100 µM | KM12 60.8 µM | UO-31 41.8 µM | HL-60 44.3 µM | LOX IMVI > 100 µM | OVCAR-8 77.6 µM | SK-MEL-28 > 100 µM | RPMI-8226 28.5 µM | SW-620 > 100 µM | 786-0 75.3 µM | IGROV-1 > 100 µM | NCI-H460 39.9 µM | ACHN > 100 µM
